Settings: for mass density / vapor or sublimation pressure / viscosity / speed of sound: Liquid; for vapor or sublimation pressure: Ebulliometric method (Recirculating still); for surface tension liquid-gas: Drop volume; for viscosity: Capillary tube (Ostwald / Ubbelohde) method; for speed of sound: Pulse-echo method

OCC1CCCO1 (stereo not given) [2-tetrahydrofurylmethanol]
Settings	mass density [kg/m3]	speed of sound [m/s]	viscosity [mPa·s]
313.15 K, 7500 kPa	1041.89	–	–
313.15 K, 10000 kPa	1043.41	–	–
313.15 K, 20000 kPa	1048.93	–	–
313.15 K, 30000 kPa	1054.21	–	–
313.15 K, 40000 kPa	1059.19	–	–
313.15 K, 50000 kPa	1063.91	–	–
313.15 K, 60000 kPa	1068.44	–	–
315.65 K, 101.33 kPa	–	1424.1	3.374
318.15 K, 100 kPa	1032.83	–	–
318.15 K, 101.33 kPa	–	1415.4	3.177
318.15 K, 2500 kPa	1034.57	–	–
318.15 K, 5000 kPa	1036.11	–	–
318.15 K, 7500 kPa	1037.62	–	–
318.15 K, 10000 kPa	1039.11	–	–
318.15 K, 20000 kPa	1044.81	–	–
318.15 K, 30000 kPa	1050.15	–	–
318.15 K, 40000 kPa	1055.24	–	–
318.15 K, 50000 kPa	1060.12	–	–
318.15 K, 60000 kPa	1064.68	–	–
320.65 K, 101.33 kPa	–	1406.8	2.996
323.15 K, 100 kPa	1028.47	–	–
323.15 K, 101.33 kPa	–	1398.1	2.83
323.15 K, 2500 kPa	1030.3	–	–
323.15 K, 5000 kPa	1031.87	–	–
323.15 K, 7500 kPa	1033.41	–	–
323.15 K, 10000 kPa	1034.93	–	–
323.15 K, 20000 kPa	1040.79	–	–
323.15 K, 30000 kPa	1046.28	–	–
323.15 K, 40000 kPa	1051.44	–	–
323.15 K, 50000 kPa	1056.41	–	–
323.15 K, 60000 kPa	1061.07	–	–
325.65 K, 101.33 kPa	–	1389.4	2.677
328.15 K, 100 kPa	1024.08	–	–
328.15 K, 101.33 kPa	–	1380.8	2.535
328.15 K, 2500 kPa	1025.88	–	–
328.15 K, 5000 kPa	1027.49	–	–
328.15 K, 7500 kPa	1029.13	–	–
328.15 K, 10000 kPa	1030.63	–	–
328.15 K, 20000 kPa	1036.6	–	–
328.15 K, 30000 kPa	1042.2	–	–
328.15 K, 40000 kPa	1047.5	–	–
328.15 K, 50000 kPa	1052.52	–	–
328.15 K, 60000 kPa	1057.3	–	–
330.65 K, 101.33 kPa	–	1372.1	2.404
333.15 K, 100 kPa	1019.68	–	–
333.15 K, 101.33 kPa	–	1363.5	2.282
333.15 K, 2500 kPa	1021.52	–	–
333.15 K, 5000 kPa	1023.18	–	–
333.15 K, 7500 kPa	1024.84	–	–
333.15 K, 10000 kPa	1026.39	–	–
333.15 K, 20000 kPa	1032.49	–	–
333.15 K, 30000 kPa	1038.22	–	–
333.15 K, 40000 kPa	1043.64	–	–
333.15 K, 50000 kPa	1048.73	–	–
333.15 K, 60000 kPa	1053.6	–	–
335.65 K, 101.33 kPa	–	1354.8	2.169
338.15 K, 100 kPa	1015.24	–	–
338.15 K, 101.33 kPa	–	1346.2	2.064
338.15 K, 2500 kPa	1017.04	–	–
338.15 K, 5000 kPa	1018.75	–	–
338.15 K, 7500 kPa	1020.45	–	–
338.15 K, 10000 kPa	1022.06	–	–
338.15 K, 20000 kPa	1028.31	–	–
338.15 K, 30000 kPa	1034.16	–	–
338.15 K, 40000 kPa	1039.68	–	–
338.15 K, 50000 kPa	1044.89	–	–
338.15 K, 60000 kPa	1049.83	–	–

Settings	surface tension liquid-gas [mN/m]	vapor or sublimation pressure [kPa]
313.15 K	–	0.21
315.65 K	35.74	–
318.15 K	35.48	0.31
320.65 K	35.23	–
323.15 K	34.98	0.43
325.65 K	34.72	–
328.15 K	34.47	0.63
330.65 K	34.22	–
333.15 K	33.96	0.86
335.65 K	33.71	–
338.15 K	33.46	1.15
343.15 K	–	1.55
348.15 K	–	2.11
353.15 K	–	2.72
358.15 K	–	3.53
363.15 K	–	4.51
368.15 K	–	5.72
373.15 K	–	7.22
378.15 K	–	9.11
383.15 K	–	11.18
388.15 K	–	13.68
393.15 K	–	16.64
398.15 K	–	20.17
403.15 K	–	24.22
408.15 K	–	28.63
413.15 K	–	34.22
418.15 K	–	40.19
423.15 K	–	47.32
428.15 K	–	56.31
433.15 K	–	65.02
438.15 K	–	74.02
443.15 K	–	84.98
448.15 K	–	97.93

101.33 kPa, Vibrating tube method
Settings	mass density [kg/m3]
315.65 K	1035
318.15 K	1032.83
320.65 K	1030.65
323.15 K	1028.47
325.65 K	1026.28
328.15 K	1024.08
330.65 K	1021.88
333.15 K	1019.68
335.65 K	1017.46
338.15 K	1015.24

From the NIST ThermoML archive (doi:10.1021/je400783h)
